# Experimental data published in the supplement of paper PMC10307832.
# Key:
# Assay in all cases: relative viability (nuclei count vs DMSO), 5 days (fraction); higher = more cells survive
# [1] = compound: CC[C@@H](C)CNCC(=O)N1CCC2=C([C@@H]1COC3=CC=CC(=C3)C)C=CS2 [RU-SKI 43] + CC(=O)c1c(C)c2cnc(Nc3ccc(N4CCNCC4)cn3)nc2n(C2CCCC2)c1=O [Palbociclib] (partner 0.5 µM)
# How it was run: (§1)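 Cells from lung cancer lines were seeded into 1536-well plates and, one day later, dosed by pin tool. Treatments were either a single drug or a fixed dose of an anchor drug with five library-drug doses (not always all listed) in √10 steps. After 5 days, nuclei were stained in a one-step fixation (final 0.05% Triton X-100, 1% formaldehyde, 1 ug/ml Hoechst) and counted on 4× images, and relative viability is the treated-to-vehicle nuclei ratio, as the median of duplicate plates.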
# [2] = compound: CC[C@@H](C)CNCC(=O)N1CCC2=C([C@@H]1COC3=CC=CC(=C3)C)C=CS2 [RU-SKI 43] + CC(C)C[C@H](NC(=O)[C@H](Cc1ccccc1)NC(=O)c1cnccn1)B(O)O [Bortezomib] (partner 0.002 µM)
# How it was run: as §1
# [3] = compound: CCc1c2c(nc3ccc(OC(=O)N4CCC(N5CCCCC5)CC4)cc13)-c1cc3c(c(=O)n1C2)COC(=O)[C@]3(O)CC [Irinotecan] + C[C@]1(O)C[C@@H](c2nc(-c3ccc4ccc(-c5ccccc5)nc4c3)c3c(N)nccn32)C1 [Linsitinib] (partner 1 µM)
# How it was run: as §1
# [4] = compound: Cn1cc(-c2cnc3ccc4ccc(CS(=O)(=O)NCc5ccccn5)cc4c(=O)c3c2)cn1 [MK-8033] + COc1cccc2cc(-c3nc([C@H]4CC[C@H](C(=O)O)CC4)n4ncnc(N)c34)[nH]c12 [OSI-027] (partner 0.5 µM)
# How it was run: as §1
Cell Line,relative viability ([1]; first compound 0.1 µM),relative viability ([1]; first compound 0.3162 µM),relative viability ([1]; first compound 1 µM),relative viability ([1]; first compound 3.162 µM),relative viability ([1]; first compound 10 µM),relative viability ([2]; first compound 0.1 µM),relative viability ([2]; first compound 0.3162 µM),relative viability ([2]; first compound 1 µM),relative viability ([2]; first compound 3.162 µM),relative viability ([2]; first compound 10 µM),relative viability ([3]; first compound 0.6325 µM),relative viability ([3]; first compound 2 µM),relative viability ([3]; first compound 6.325 µM),relative viability ([3]; first compound 20 µM),relative viability ([4]; first compound 0.02 µM),relative viability ([4]; first compound 0.2 µM),relative viability ([4]; first compound 0.6325 µM),relative viability ([4]; first compound 2 µM),relative viability ([4]; first compound 0.06325 µM)
HCC-78,0.43,0.408,0.533,0.461,0.503,0.505,0.495,0.484,0.471,0.427,0.577,0.418,0.204,0.184,0.352,0.329,0.34,0.398,
HCC-366,0.274,0.447,0.416,0.396,0.264,1.11,1.39,1.24,1.24,1.07,0.443,0.152,0.0502,0.0674,1.1,0.838,0.945,0.791,0.85
HCC-827,0.474,0.414,0.56,0.498,0.427,0.989,1.07,1.18,1.11,1.02,0.599,0.302,0.241,0.258,0.774,0.735,0.801,0.758,
HOP-62,0.462,0.508,0.532,0.469,0.403,0.728,0.561,1.01,0.731,0.765,0.146,0.158,0.138,0.203,0.83,0.756,0.84,0.896,0.821
IA-LM,,,,,,0.798,0.759,1.12,0.912,0.745,0.31,0.393,0.248,0.123,,,,,
LC-2-ad,0.509,0.579,0.532,0.514,0.445,1.03,1.21,1.06,1.1,0.867,0.48,0.237,0.179,0.184,0.806,,0.884,0.789,0.91
LCLC-97TM1,0.296,0.189,0.281,0.222,0.231,0.852,0.827,1.79,0.684,0.645,0.118,0.189,0.168,0.169,0.519,0.431,0.592,0.568,0.456
LK-2,0.685,0.912,0.949,0.673,0.674,,,,,,0.468,0.529,0.309,0.165,0.202,0.22,0.189,0.276,0.227
NCI-H358,0.129,0.152,0.15,0.128,0.128,,,,,,0.681,0.671,0.36,0.251,0.799,0.613,0.812,0.58,0.64
NCI-H522,1.22,1.08,1.18,1.29,0.977,,,,,,,,,,0.806,0.661,0.729,0.722,0.627
NCI-H596,,,,,,1.32,0.93,1.34,0.936,1.1,1.01,1,0.556,0.537,0.798,0.607,0.706,0.599,0.612
NCI-H1299,,,,,,0.985,1.04,1.06,1.05,1.02,0.721,0.865,0.463,0.266,,,,,
NCI-H1395,0.638,0.685,0.714,0.624,0.573,,,,,,,0.804,0.484,0.29,0.557,0.601,0.644,0.615,0.555
NCI-H1563,,,,,,0.882,0.828,0.888,0.797,0.797,1.09,1.27,0.969,0.718,0.789,0.727,0.807,0.724,0.8
NCI-H1623,,,,,,,,,,,,,,,0.411,0.495,0.442,0.477,0.409
NCI-H1648,0.284,0.26,0.257,0.304,0.271,,,,,,,,,,,0.261,,0.25,0.261
NCI-H1650,0.375,0.346,0.338,0.351,0.302,0.204,0.208,0.222,0.209,0.192,,,,,0.677,0.568,0.644,0.485,0.404
NCI-H1703,,,,,,0.345,0.227,0.371,0.282,0.227,0.454,0.916,0.572,0.186,,,,,
NCI-H1793,0.331,0.222,0.326,0.336,0.27,,,,,,,0.609,0.272,0.341,0.247,0.233,0.282,0.2,0.253
NCI-H1944,0.34,0.334,0.328,0.316,0.303,,,,,,0.819,0.38,0.241,0.249,0.436,0.4,0.4,0.404,0.292
NCI-H2170,0.394,0.467,0.419,0.453,0.372,,,,,,,,,,0.682,0.7,0.732,0.707,0.639
NCI-H2342,0.524,,0.547,0.524,0.488,,,,,,,,,,0.588,0.719,0.665,0.632,0.64
SK-MES-1,0.292,0.304,0.34,0.344,0.26,,,,,,0.997,0.646,0.315,0.281,0.621,0.566,0.605,0.535,0.592
SW 900,0.542,0.513,0.522,0.522,0.45,,,,,,,,,,0.597,0.515,0.448,0.597,0.437
